Here are results for 10 compounds from ChEMBL document CHEMBL3638448, “8-[3-amino-piperidin-1-yl]-xanthines, their preparation and their use as pharmaceutical compositions” (2014).

For the test, the target named is Dipeptidyl peptidase 4 (Homo sapiens, UniProt P27487). In words: Biological Assay: 50 μl of substrate solution (AFC; AFC is amido-4-trifluoromethylcoumarin), final concentration 100 μM, was placed in black microtitre plates. 20 μl of assay buffer (final concentrations 50 mM Tris HCl pH 7.8, 50 mM NaCl, 1% DMSO) was pipetted therein. The reaction was started by the addition of 30 μl of solubilized Caco-2 protein (final concentration 0.14 μg of protein per well). The test substances under investigation were typically added prediluted to 20 μl, while the volume of assay buffer was then reduced accordingly. The reaction was carried out at ambient temperature, the incubation period was 60 minutes. Then the fluorescence was measured in a Victor 1420 Multilabel Counter, with the excitation wavelength at 405 nm and the emission wavelength at 535 nm.

pIC50: −log10 of the molar value.

Chain of Dipeptidyl peptidase 4 (P27487 whole entry): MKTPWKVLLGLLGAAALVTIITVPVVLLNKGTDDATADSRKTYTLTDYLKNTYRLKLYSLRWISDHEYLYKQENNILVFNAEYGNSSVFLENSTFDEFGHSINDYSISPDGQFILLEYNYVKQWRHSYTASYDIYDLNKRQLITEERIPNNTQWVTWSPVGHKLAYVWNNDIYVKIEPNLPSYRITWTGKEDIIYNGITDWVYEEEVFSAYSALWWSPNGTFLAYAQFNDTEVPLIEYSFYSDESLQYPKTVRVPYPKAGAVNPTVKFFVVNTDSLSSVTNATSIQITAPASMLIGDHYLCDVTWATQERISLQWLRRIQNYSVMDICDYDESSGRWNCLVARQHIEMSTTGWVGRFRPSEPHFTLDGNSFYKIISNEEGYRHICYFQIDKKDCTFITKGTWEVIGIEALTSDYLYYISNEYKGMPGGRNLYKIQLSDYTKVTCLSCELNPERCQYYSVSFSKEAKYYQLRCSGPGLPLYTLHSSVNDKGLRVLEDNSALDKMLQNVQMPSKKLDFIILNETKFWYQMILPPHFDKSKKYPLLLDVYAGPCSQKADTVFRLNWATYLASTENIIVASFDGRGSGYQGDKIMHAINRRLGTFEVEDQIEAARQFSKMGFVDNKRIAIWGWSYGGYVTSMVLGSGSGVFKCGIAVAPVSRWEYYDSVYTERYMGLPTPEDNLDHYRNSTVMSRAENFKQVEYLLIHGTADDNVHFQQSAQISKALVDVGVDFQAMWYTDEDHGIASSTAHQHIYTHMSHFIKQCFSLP

In turn, `CC#CCn1c(N2CCCC(NC(=O)OC(C)(C)C)C2)nc2c1c(=O)n(Cc1nc(NCc3ccccc3)c3ccccc3n1)c(=O)n2C` (stereo not given) gave a pIC50 of 8.22. For `CC#CCn1c(N2CCC[C@@H](NC(=O)OC(C)(C)C)C2)nc2c1c(=O)n(Cc1cc(C#N)c3ccccc3n1)c(=O)n2C` the value was 8.70; for `CC#CCn1c(N2CCC[C@@H](NC(=O)OC(C)(C)C)C2)nc2c1c(=O)n(CC(=O)c1cccc(OC3CC3)c1)c(=O)n2C`, 8.30; for `CC#CCn1c(N2CCC[C@@H](NC(=O)OC(C)(C)C)C2)nc2c1c(=O)n(Cc1nc(-c3ccccc3)nc3ccccc13)c(=O)n2C`, 8.05. For `CC#CCn1c(N2CCC[C@@H](NC(=O)OC(C)(C)C)C2)nc2c1c(=O)n(Cc1cc(C#N)cc3ccccc13)c(=O)n2C` the value was 8.22; for `CC#CCn1c(N2CCC[C@@H](NC(=O)OC(C)(C)C)C2)nc2c1c(=O)n(Cc1ccc3nc(C)c(C)nc3c1)c(=O)n2C`, 8.70; for `CC#CCn1c(N2CCC[C@@H](NC(=O)OC(C)(C)C)C2)nc2c1c(=O)n(Cc1nccc(-c3ccccc3)n1)c(=O)n2C`, 8.70. On to `CC#CCn1c(N2CCC[C@@H](NC(=O)OC(C)(C)C)C2)nc2c1c(=O)n(CC(=O)c1ccccc1Br)c(=O)n2C`, for which the pIC50 was 8.70. As to `CC#CCn1c(N2CCC[C@@H](NC(=O)OC(C)(C)C)C2)nc2c1c(=O)n(CC(=O)c1ccccc1[N+](=O)[O-])c(=O)n2C`, the pIC50 was 8.52. For `CC#CCn1c(N2CCC[C@@H](NC(=O)OC(C)(C)C)C2)nc2c1c(=O)n(Cc1nc3ccccc3c(C)c1C#N)c(=O)n2C`, the negative logarithm of the IC50 (pIC50) is 8.70.
